Test results reported in paper PMC4406878 (Pharmaceutical research, 2011).

System: PSMA
Details: 2 nM DHT, 48 h, 5% charcoal-stripped FBS RPMI-1640, Western blot

Compound: C[C@]12CCC(=O)C[C@@H]1CC[C@@H]1[C@@H]2CC[C@]2(C)[C@@H](O)CC[C@@H]12 [DHT, 5-α-dihydrotestosterone]
- PSMA expression in LNCaP cells: substantially inhibited
